Assay: cn = amount concentration of the nth substance listed, in mol/dm3
Settings: 101 kPa, Liquid; for molar conductivity: Shedlovsky-type conductance cell; for binary diffusion coefficient: Open capillary

CN[C@@H](C)[C@H](O)c1ccccc1.Cl [ephedrine hydrochloride] + O
Settings	binary diffusion coefficient, 298.15 K [m2/s]	binary diffusion coefficient, 310.15 K [m2/s]	molar conductivity, 283.15 K [S·m2/mol]	molar conductivity, 293.15 K [S·m2/mol]	molar conductivity, 298.15 K [S·m2/mol]	molar conductivity, 303.15 K [S·m2/mol]	molar conductivity, 310.15 K [S·m2/mol]	molar conductivity, 323.15 K [S·m2/mol]
c1 = 0.00125	1.15e-09	1.57e-09	–	–	–	–	–	–
c1 = 0.00184	–	–	0.006571	0.008375	0.009463	0.01041	0.01195	0.01495
c1 = 0.002438	–	–	0.006463	0.008198	0.009282	0.01023	0.01173	0.01471
c1 = 0.0025	1.1e-09	1.56e-09	–	–	–	–	–	–
c1 = 0.00303	–	–	0.006355	0.008059	0.009127	0.01006	0.01154	0.01449
c1 = 0.003614	–	–	0.00628	0.007907	0.008991	0.009914	0.01139	0.01427
c1 = 0.004191	–	–	0.006181	0.007775	0.00886	0.009802	0.01125	0.01408
c1 = 0.004761	–	–	0.006103	0.007663	0.008753	0.009663	0.01108	0.01392
c1 = 0.00499	1.09e-09	1.5e-09	–	–	–	–	–	–
c1 = 0.005324	–	–	0.006044	0.007564	0.008653	0.009567	0.01096	0.01377
c1 = 0.005881	–	–	0.00599	0.007468	0.008556	0.009474	0.01085	0.01356
c1 = 0.006431	–	–	0.005925	0.007377	0.008465	0.009363	0.01074	0.01344
c1 = 0.006975	–	–	0.00586	0.007288	0.008374	0.009271	0.01064	0.01332
c1 = 0.00746	1.03e-09	1.45e-09	–	–	–	–	–	–
c1 = 0.007513	–	–	0.005794	0.007199	0.008283	0.009197	0.01052	0.01318
c1 = 0.008044	–	–	0.005736	0.007119	0.008199	0.00911	0.01042	0.01307
c1 = 0.008569	–	–	0.005685	0.007044	0.00812	0.009028	0.01033	0.01295
c1 = 0.009089	–	–	0.005635	0.006974	0.008044	0.008949	0.01023	0.01284
c1 = 0.009602	–	–	0.005584	0.006908	0.007975	0.008878	0.01015	0.01274
c1 = 0.01	1e-09	1.41e-09	–	–	–	–	–	–
c1 = 0.01011	–	–	0.005537	0.006846	0.007908	0.008807	0.01007	0.01264
c1 = 0.01061	–	–	0.005491	0.006795	0.00784	0.008734	0.009982	0.01254
c1 = 0.01111	–	–	0.005446	0.006723	0.007774	0.008665	0.009901	0.01244
c1 = 0.0116	–	–	0.005401	0.006663	0.007709	0.008596	0.009821	0.01234
c1 = 0.01209	–	–	0.005359	0.006604	0.007646	0.008528	0.009742	0.01226
c1 = 0.01256	–	–	0.00532	0.006549	0.007586	0.008464	0.009673	0.01215
c1 = 0.01304	–	–	0.005281	0.006498	0.00753	0.008437	0.009602	0.01206
c1 = 0.01351	–	–	0.005244	0.006448	0.007474	0.008343	0.009533	0.01197
c1 = 0.01397	–	–	0.00521	0.0064	0.007422	0.008286	0.009467	0.01189
c1 = 0.01443	–	–	0.005176	0.006354	0.00737	0.00823	0.009401	0.01181
c1 = 0.01489	–	–	0.00514	0.006307	0.007318	0.008174	0.009336	0.01172
c1 = 0.01534	–	–	0.005107	0.00626	0.007267	0.008118	0.009271	0.01164
c1 = 0.01579	–	–	0.005075	0.006217	0.007217	0.008064	0.009208	0.01156
c1 = 0.01623	–	–	0.005042	0.006174	0.00717	0.008012	0.009146	0.01149
c1 = 0.01666	–	–	0.005011	0.006133	0.007125	0.007962	0.009088	0.01141

CN[C@H](C)[C@@H](O)c1ccccc1.[Cl-].[H+] [D-α-(1-methylaminoethyl)benzyl alcohol] + O
Settings	binary diffusion coefficient, 298.15 K [m2/s]	binary diffusion coefficient, 310.15 K [m2/s]	molar conductivity, 283.15 K [S·m2/mol]	molar conductivity, 293.15 K [S·m2/mol]	molar conductivity, 298.15 K [S·m2/mol]	molar conductivity, 303.15 K [S·m2/mol]	molar conductivity, 310.15 K [S·m2/mol]	molar conductivity, 323.15 K [S·m2/mol]
c1 = 0.001	1.13e-09	1.57e-09	–	–	–	–	–	–
c1 = 0.001841	–	–	0.006545	0.00844	0.009366	0.01041	0.01201	0.01524
c1 = 0.00244	–	–	0.006422	0.008268	0.009179	0.0102	0.01177	0.01489
c1 = 0.0025	1.12e-09	1.53e-09	–	–	–	–	–	–
c1 = 0.003031	–	–	0.006316	0.008109	0.009034	0.01001	0.01159	0.01469
c1 = 0.003615	–	–	0.006204	0.007973	0.008901	0.009837	0.01141	0.01444
c1 = 0.004193	–	–	0.006101	0.007849	0.008778	0.009703	0.01122	0.01422
c1 = 0.004763	–	–	0.006018	0.007749	0.008675	0.009566	0.01107	0.01401
c1 = 0.005	1.1e-09	1.48e-09	–	–	–	–	–	–
c1 = 0.005327	–	–	0.005942	0.007661	0.008577	0.009439	0.01094	0.01384
c1 = 0.005884	–	–	0.005866	0.00757	0.008481	0.00932	0.01079	0.01368
c1 = 0.006434	–	–	0.005795	0.007486	0.00839	0.009208	0.0107	0.01352
c1 = 0.006978	–	–	0.005725	0.007395	0.008298	0.009099	0.01057	0.01337
c1 = 0.007516	–	–	0.005655	0.00731	0.008205	0.008991	0.01046	0.01322
c1 = 0.008	1.05e-09	1.42e-09	–	–	–	–	–	–
c1 = 0.008048	–	–	0.005593	0.007232	0.00812	0.008893	0.01036	0.01308
c1 = 0.008573	–	–	0.005534	0.007159	0.00804	0.0088	0.01027	0.01295
c1 = 0.009093	–	–	0.005477	0.007089	0.007965	0.008713	0.01018	0.01283
c1 = 0.009607	–	–	0.005427	0.007027	0.007896	0.008633	0.01009	0.01271
c1 = 0.01	1.01e-09	1.38e-09	–	–	–	–	–	–
c1 = 0.01012	–	–	0.005377	0.006966	0.007829	0.008556	0.01001	0.0126
c1 = 0.01062	–	–	0.005329	0.006904	0.007761	0.008478	0.009923	0.01249
c1 = 0.01111	–	–	0.005284	0.006844	0.007695	0.008404	0.009841	0.01238
c1 = 0.01161	–	–	0.005242	0.006785	0.00763	0.008329	0.00976	0.01228
c1 = 0.01209	–	–	0.005196	0.006729	0.007567	0.008257	0.009679	0.01217
c1 = 0.01257	–	–	0.005156	0.006675	0.007501	0.00819	0.009603	0.01208
c1 = 0.01305	–	–	0.005118	0.006626	0.00745	0.008126	0.009532	0.01198
c1 = 0.01352	–	–	0.005078	0.006576	0.007395	0.008064	0.009461	0.01189
c1 = 0.01398	–	–	0.005038	0.006528	0.007343	0.008005	0.009394	0.01181
c1 = 0.01444	–	–	0.005003	0.006483	0.007291	0.007946	0.009328	0.01172
c1 = 0.0149	–	–	0.004966	0.006437	0.007239	0.007888	0.009261	0.01164
c1 = 0.01535	–	–	0.004929	0.00639	0.007188	0.007831	0.009196	0.01155
c1 = 0.01579	–	–	0.004894	0.006343	0.007138	0.007776	0.009132	0.01147
c1 = 0.01623	–	–	0.004861	0.006302	0.00709	0.007722	0.009069	0.01139
c1 = 0.01667	–	–	0.004832	0.006262	0.007045	0.007671	0.00901	0.01132
